Results published in ChEMBL document CHEMBL1144945, “Development of progesterone receptor antagonists from 1,2-dihydrochromeno[3,4-f]quinoline agonist pharmacophore” (Bioorg Med Chem Lett, 2003).
One block for each molecule: values may come before it. Activity calls are given as the source filed them.

Tests used:
[1] = molecular target: T1, Progesterone receptor (Homo sapiens) (UniProt P06401); assay: Effective concentration against human progesterone receptor in T47D human breast cancer cell; not active (<20% efficacy and/or >10 mM potency); type: cell-based; settings: Cancer cell lines
T1 sequence (whole entry): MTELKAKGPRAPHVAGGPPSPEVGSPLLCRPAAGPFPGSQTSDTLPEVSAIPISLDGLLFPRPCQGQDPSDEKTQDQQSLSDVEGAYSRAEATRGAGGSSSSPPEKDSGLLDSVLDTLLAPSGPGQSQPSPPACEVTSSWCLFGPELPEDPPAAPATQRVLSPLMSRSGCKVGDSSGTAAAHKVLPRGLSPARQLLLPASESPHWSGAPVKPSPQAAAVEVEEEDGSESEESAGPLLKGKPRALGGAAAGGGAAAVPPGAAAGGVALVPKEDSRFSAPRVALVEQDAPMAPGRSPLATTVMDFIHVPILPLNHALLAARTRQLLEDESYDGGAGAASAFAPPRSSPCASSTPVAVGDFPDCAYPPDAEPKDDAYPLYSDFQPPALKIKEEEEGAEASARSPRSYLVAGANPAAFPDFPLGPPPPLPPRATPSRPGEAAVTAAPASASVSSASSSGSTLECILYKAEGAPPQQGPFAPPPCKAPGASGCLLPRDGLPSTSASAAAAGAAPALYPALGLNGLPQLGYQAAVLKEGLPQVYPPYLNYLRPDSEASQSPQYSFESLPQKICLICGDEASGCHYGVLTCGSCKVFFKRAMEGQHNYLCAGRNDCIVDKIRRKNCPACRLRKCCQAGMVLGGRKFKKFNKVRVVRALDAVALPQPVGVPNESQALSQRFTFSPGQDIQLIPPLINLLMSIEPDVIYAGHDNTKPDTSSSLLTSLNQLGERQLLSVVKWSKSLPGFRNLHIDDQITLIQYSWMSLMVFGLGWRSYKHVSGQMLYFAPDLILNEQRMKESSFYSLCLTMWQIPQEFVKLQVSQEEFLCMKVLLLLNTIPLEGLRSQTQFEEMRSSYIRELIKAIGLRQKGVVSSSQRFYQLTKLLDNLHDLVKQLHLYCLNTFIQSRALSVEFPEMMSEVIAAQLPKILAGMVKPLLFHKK

[2] = molecular target: T1, Progesterone receptor (Homo sapiens); assay: Agonist efficacy for human progesterone receptor in T47D human breast cancer cell; not active (<20% efficacy and/or >10 mM potency); type: functional, cell-based
Progesterone receptor [3] = molecular target: T2, Progesterone receptor (Homo sapiens, UniProt P06401)
T2 sequence (P06401 whole entry): T1 sequence (whole entry)
Description: Antagonistic activity at human progesterone receptor in CV-1 cells.

Progesterone receptor [4] = molecular target: T2, Progesterone receptor; remark: listed apart in the source
Description: Binding affinity at human progesterone receptor.

Progesterone receptor [5] = molecular target: T2, Progesterone receptor; remark: listed apart in the source
Description: Inhibition of human progesterone receptor activation in T47D human breast cancer cell.

[6] = molecular target: T3, Estrogen receptor (Homo sapiens) (UniProt Q92731+P03372); assay: Antagonist efficacy for Estrogen receptor; type: functional
Glucocorticoid receptor [7] = molecular target: T4, Glucocorticoid receptor (Homo sapiens, UniProt P04150); assay: Inhibition of antagonist activity towards glucocorticoid receptor; type: functional
T4 sequence (P04150 whole entry): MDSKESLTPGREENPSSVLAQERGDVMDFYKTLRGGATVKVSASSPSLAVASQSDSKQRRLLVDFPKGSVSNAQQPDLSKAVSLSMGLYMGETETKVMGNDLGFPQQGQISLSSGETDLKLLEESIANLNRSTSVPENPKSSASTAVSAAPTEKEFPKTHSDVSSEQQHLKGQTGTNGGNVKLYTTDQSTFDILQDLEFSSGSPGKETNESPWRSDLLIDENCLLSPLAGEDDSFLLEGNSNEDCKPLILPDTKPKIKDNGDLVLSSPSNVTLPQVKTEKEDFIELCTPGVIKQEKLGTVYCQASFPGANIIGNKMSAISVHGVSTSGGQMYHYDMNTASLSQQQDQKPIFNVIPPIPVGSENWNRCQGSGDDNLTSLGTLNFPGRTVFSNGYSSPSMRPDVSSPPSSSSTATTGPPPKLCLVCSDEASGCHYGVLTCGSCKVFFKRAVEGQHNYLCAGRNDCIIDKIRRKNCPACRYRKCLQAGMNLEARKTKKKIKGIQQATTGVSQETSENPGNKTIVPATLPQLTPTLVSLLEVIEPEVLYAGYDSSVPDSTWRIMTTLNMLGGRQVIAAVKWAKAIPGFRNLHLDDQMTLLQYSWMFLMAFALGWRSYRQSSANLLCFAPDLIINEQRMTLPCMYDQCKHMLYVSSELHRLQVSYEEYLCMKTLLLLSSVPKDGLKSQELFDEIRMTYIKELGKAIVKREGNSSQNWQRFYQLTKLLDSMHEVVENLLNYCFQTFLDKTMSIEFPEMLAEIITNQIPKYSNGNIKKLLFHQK

[8] = molecular target: T3, Estrogen receptor (Homo sapiens); assay: Antagonist efficacy for Estrogen receptor; Not active; type: functional
[9] = molecular target: T5, Mineralocorticoid receptor (Homo sapiens, UniProt P08235); assay: Inhibition of antagonist activity towards mineralocorticoid receptor (hMR); Not active; type: functional
T5 sequence (P08235 whole entry): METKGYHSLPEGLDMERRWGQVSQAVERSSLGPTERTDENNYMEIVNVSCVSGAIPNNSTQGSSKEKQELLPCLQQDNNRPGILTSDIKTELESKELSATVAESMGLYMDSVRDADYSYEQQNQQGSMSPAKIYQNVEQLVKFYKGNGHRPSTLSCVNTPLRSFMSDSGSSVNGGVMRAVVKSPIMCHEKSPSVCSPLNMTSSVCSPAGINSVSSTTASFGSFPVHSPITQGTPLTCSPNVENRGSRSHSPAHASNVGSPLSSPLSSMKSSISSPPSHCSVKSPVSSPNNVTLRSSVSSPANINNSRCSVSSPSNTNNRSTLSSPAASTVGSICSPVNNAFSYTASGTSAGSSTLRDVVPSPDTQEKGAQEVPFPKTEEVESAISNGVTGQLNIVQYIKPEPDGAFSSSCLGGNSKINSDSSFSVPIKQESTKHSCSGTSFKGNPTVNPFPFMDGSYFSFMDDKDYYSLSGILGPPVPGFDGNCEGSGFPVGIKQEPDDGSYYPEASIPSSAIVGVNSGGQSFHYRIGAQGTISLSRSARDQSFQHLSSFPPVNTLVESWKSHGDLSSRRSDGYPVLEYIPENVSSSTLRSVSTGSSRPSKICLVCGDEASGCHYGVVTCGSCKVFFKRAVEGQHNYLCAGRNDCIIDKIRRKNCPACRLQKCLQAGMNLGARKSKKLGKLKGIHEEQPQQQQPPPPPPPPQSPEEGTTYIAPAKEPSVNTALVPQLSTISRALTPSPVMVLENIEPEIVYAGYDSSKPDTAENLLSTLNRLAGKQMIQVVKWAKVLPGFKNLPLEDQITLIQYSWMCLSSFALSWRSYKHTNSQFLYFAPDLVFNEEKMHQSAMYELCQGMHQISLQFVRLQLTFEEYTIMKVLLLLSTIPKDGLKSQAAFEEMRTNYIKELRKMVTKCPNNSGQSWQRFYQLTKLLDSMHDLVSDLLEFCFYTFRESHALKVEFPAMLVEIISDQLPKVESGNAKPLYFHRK

[10] = molecular target: T6, Mineralocorticoid receptor (Homo sapiens) (UniProt P08235); assay: Antagonist efficacy for mineralocorticoid receptor (hMR); Not active; type: functional
T6 sequence (whole entry): T5 sequence (P08235 whole entry)

Androgen receptor = molecular target: T7, Androgen receptor (Homo sapiens, UniProt P10275)
T7 sequence (P10275 whole entry): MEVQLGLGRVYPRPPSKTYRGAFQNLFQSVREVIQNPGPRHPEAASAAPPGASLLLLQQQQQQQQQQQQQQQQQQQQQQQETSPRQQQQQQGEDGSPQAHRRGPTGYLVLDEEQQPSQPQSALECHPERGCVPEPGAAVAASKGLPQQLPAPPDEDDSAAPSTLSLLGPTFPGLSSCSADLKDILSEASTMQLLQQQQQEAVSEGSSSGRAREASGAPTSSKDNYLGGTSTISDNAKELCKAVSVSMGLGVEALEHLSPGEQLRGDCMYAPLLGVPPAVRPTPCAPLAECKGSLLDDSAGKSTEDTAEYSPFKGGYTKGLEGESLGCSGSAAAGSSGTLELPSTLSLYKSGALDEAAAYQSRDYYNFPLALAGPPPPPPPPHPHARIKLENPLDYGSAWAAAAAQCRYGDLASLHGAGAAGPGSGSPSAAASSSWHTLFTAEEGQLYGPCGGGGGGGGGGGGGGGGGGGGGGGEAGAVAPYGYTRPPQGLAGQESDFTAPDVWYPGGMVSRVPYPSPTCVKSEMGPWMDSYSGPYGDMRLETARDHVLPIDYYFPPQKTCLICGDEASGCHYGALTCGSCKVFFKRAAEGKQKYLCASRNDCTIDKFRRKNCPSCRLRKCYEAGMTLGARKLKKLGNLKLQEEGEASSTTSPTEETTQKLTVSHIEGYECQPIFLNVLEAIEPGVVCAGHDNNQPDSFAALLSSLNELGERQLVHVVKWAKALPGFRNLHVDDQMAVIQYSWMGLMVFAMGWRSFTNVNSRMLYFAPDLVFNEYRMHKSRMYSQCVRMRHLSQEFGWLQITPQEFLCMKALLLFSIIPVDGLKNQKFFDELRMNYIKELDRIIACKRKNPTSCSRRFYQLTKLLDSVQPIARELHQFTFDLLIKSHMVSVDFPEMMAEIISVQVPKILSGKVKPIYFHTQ
Description: Inhibition of antagonist activity towards Androgen receptor

Progesterone receptor [11] = molecular target: T2, Progesterone receptor; remark: listed apart in the source
Description: Effective concentration for human progesterone receptor in T47D human breast cancer cell

Glucocorticoid receptor [12] = molecular target: T4, Glucocorticoid receptor; assay: Inhibition of antagonist activity towards glucocorticoid receptor; not active; type: functional
[13] = molecular target: T8, Glucocorticoid receptor (Homo sapiens) (UniProt P04150); assay: Antagonist efficacy for glucocorticoid receptor; not active; type: functional
T8 sequence (whole entry): T4 sequence (P04150 whole entry)

[14] = molecular target: T5, Mineralocorticoid receptor; assay: Inhibition of antagonist activity towards mineralocorticoid receptor (hMR); type: functional
[15] = molecular target: T6, Mineralocorticoid receptor (Homo sapiens); assay: Antagonist efficacy for mineralocorticoid receptor (hMR); type: functional
Progesterone receptor [16] = molecular target: T2, Progesterone receptor; assay: Effective concentration for antagonistic activity towards human progesterone in CV-1 cells; type: functional, cell-based
[17] = molecular target: T1, Progesterone receptor (Homo sapiens); assay: Antagonist efficacy for human progesterone in CV-1 cells; type: functional, cell-based
Progesterone receptor [18] = molecular target: T2, Progesterone receptor; assay: Binding towards human progesterone receptor

SMILES: CC1=CC(C)(C)Nc2ccc3c(c21)COc1c(F)cc(C#N)cc1-3
- IC50 (Glucocorticoid receptor [7]): 194 nM
- Efficacy [8]: inactive
- IC50 [9]: Not Active
- Efficacy [10]: inactive
- IC50 (Androgen receptor): 60 nM
- EC50 (Progesterone receptor [3]): 16.7 nM
- EC50 (Progesterone receptor [11]): 86 nM
- Ki (Progesterone receptor [4]): 4.5 nM
- IC50 (Progesterone receptor [5]): 149 nM

SMILES: CN(C)c1ccc([C@H]2C[C@]3(C)[C@@H](CC[C@]3(O)CCCO)[C@@H]3CCC4=CC(=O)CCC4=C32)cc1 [ONAPRISTONE]
- IC50 [14]: 470 nM
- Efficacy [15]: 49%
- Activity [1]: inactive
- Activity [2]: inactive

SMILES: CC1=CC(C)(C)Nc2ccc3c(c21)COc1ccc([N+](=O)[O-])cc1-3
- IC50 (Glucocorticoid receptor [7]): 689 nM
- Efficacy [8]: inactive
- IC50 [14]: 1890 nM
- Efficacy [15]: 79%
- IC50 (Androgen receptor): 60 nM
- EC50 (Progesterone receptor [3]): 28.6 nM
- EC50 (Progesterone receptor [11]): 257 nM
- Ki (Progesterone receptor [4]): 6.8 nM
- IC50 (Progesterone receptor [5]): 152 nM

SMILES: CC1=CC(C)(C)Nc2ccc3c(c21)COc1c(Br)cc(Br)cc1-3
- EC50 (Progesterone receptor [16]): 1870 nM
- Efficacy [17]: 86%
- Ki (Progesterone receptor [18]): > 1000 nM

Second part, the molecule after the results:

- Activity [1]: inactive
- Activity [2]: inactive
- EC50 (Progesterone receptor [3]): 781 nM
- Ki (Progesterone receptor [4]): 370 nM
- IC50 (Progesterone receptor [5]): 483 nM
SMILES: CC1CC(C)(C)Nc2ccc3c(c21)COc1c-3cc(F)cc1[N+](=O)[O-] (centres undefined)

- Efficacy [6]: 59%
SMILES: CC#C[C@]1(O)CC[C@H]2[C@@H]3CCC4=CC(=O)CCC4=C3[C@@H](c3ccc(N(C)C)cc3)C[C@@]21C

- IC50 (Glucocorticoid receptor [12]): Not Active
- Efficacy [8]: inactive
- Efficacy [13]: inactive
- IC50 [9]: Not Active
- Efficacy [10]: inactive
- IC50 (Androgen receptor): 788 nM
SMILES: CC1=CC(C)(C)Nc2ccc3c(c21)COc1ccc(Cl)cc1-3

- EC50 (Progesterone receptor [3]): 43 nM
- Ki (Progesterone receptor [4]): 476 nM
SMILES: COc1cc(Br)cc2c1OCc1c-2ccc2c1C(C)=CC(C)(C)N2
